According to ChEMBL document CHEMBL6078624, “Structure-based discovery of a 4,5-Dihydropyrazole-cored PET ligand for imaging of receptor-interacting serine/threonine-protein kinase 1 (RIPK1) in the brain” (Eur J Med Chem, 2024):

Legend:
[1] = Biodistribution in male ICR mouse kidney at 0.74 MBq, iv administered into tail vein pre-treated with WL8 followed by compound addition by automatic gamma counter analysis relative to baseline; type: ADME, organism-based; settings: in vivo
[2] = Biodistribution in male ICR mouse bone at 0.74 MBq, iv administered into tail vein pre-treated with WL8 followed by compound addition by automatic gamma counter analysis relative to baseline; type: ADME, organism-based, Bone element; settings: in vivo
[3] = Biodistribution in male ICR mouse liver at 0.74 MBq, iv administered into tail vein pre-treated with GSK'547 followed by compound addition by automatic gamma counter analysis relative to baseline; type: ADME, organism-based; settings: in vivo
[4] = Drug uptake in male Sprague-Dawley rat cortex at 12.6 to 18.6 MBq, iv administered into tail vein by PET/CT imaging analysis; type: ADME, organism-based; settings: in vivo, dose 12.6-18.6 MBq
[5] = Drug uptake in male Sprague-Dawley rat brain at 12.6 to 18.6 MBq, iv administered into tail vein measured at 1.5 mins post-injection by PET/CT imaging analysis; type: ADME, organism-based; settings: in vivo, 0.025 h, dose 12.6-18.6 MBq
[6] = Biodistribution in male ICR mouse muscle tissue at 0.74 MBq, iv administered into tail vein pre-treated with WL8 followed by compound addition by automatic gamma counter analysis relative to baseline; type: ADME, organism-based; settings: in vivo
[7] = Biodistribution in male ICR mouse bone at 0.74 MBq, iv administered into tail vein pre-treated with GSK'547 followed by compound addition by automatic gamma counter analysis relative to baseline; type: ADME, organism-based, Bone element; settings: in vivo
[8] = Biodistribution in male ICR mouse brain at 0.74 MBq, iv administered into tail vein measured at 10 mins post-injection by automatic gamma counter analysis; type: ADME, organism-based; settings: in vivo
[9] = Drug uptake in male Sprague-Dawley rat cerebellum at 12.6 to 18.6 MBq, iv administered into tail vein by PET/CT imaging analysis; type: ADME, organism-based; settings: in vivo, dose 12.6-18.6 MBq
[10] = Biodistribution in male ICR mouse blood at 0.74 MBq, iv administered into tail vein pre-treated with GSK'547 followed by compound addition by automatic gamma counter analysis; type: ADME, organism-based; settings: in vivo
[11] = Biodistribution in male ICR mouse spleen at 0.74 MBq, iv administered into tail vein pre-treated with WL8 followed by compound addition by automatic gamma counter analysis relative to baseline; type: ADME, organism-based; settings: in vivo
[12] = Biodistribution in male ICR mouse lungs at 0.74 MBq, iv administered into tail vein by automatic gamma counter analysis; type: ADME, organism-based, Lung; settings: in vivo
[13] = Biodistribution in male ICR mouse blood at 0.74 MBq, iv administered into tail vein measured at 10 mins post-injection by automatic gamma counter analysis; type: ADME, organism-based; settings: in vivo
[14] = Biodistribution in male ICR mouse spleen at 0.74 MBq, iv administered into tail vein pre-treated with GSK'547 followed by compound addition by automatic gamma counter analysis relative to baseline; type: ADME, organism-based; settings: in vivo
[15] = Biodistribution in male ICR mouse blood at 0.74 MBq, iv administered into tail vein measured at 2 mins post-injection by automatic gamma counter analysis; type: ADME, organism-based; settings: in vivo
[16] = Biodistribution in male ICR mouse blood at 0.74 MBq, iv administered into tail vein measured at 30 mins post-injection by automatic gamma counter analysis; type: ADME, organism-based; settings: in vivo, 0.5 h
[17] = Biodistribution in male ICR mouse muscle tissue at 0.74 MBq, iv administered into tail vein pre-treated with GSK'547 followed by compound addition by automatic gamma counter analysis relative to baseline; type: ADME, organism-based; settings: in vivo
[18] = Biodistribution in male ICR mouse small intestine 0.74 MBq, iv administered into tail vein pre-treated with GSK'547 followed by compound addition by automatic gamma counter analysis relative to baseline; type: ADME, organism-based; settings: in vivo
[19] = Biodistribution in male ICR mouse pancreas at 0.74 MBq, iv administered into tail vein by automatic gamma counter analysis; type: ADME, organism-based; settings: in vivo
[20] = Biodistribution in male ICR mouse bone at 0.74 MBq, iv administered into tail vein measured at 60 mins post-injection by automatic gamma counter analysis; type: ADME, organism-based, Bone element; settings: in vivo, 1 h
[21] = Biodistribution in male ICR mouse small intestine at 0.74 MBq, iv administered into tail vein pre-treated with WL8 followed by compound addition by automatic gamma counter analysis relative to baseline; type: ADME, organism-based; settings: in vivo
[22] = Biodistribution in male ICR mouse kidneys at 0.74 MBq, iv administered into tail vein measured at 60 mins post-injection by automatic gamma counter analysis; type: ADME, organism-based, Kidney; settings: in vivo, 1 h
[23] = Biodistribution in male ICR mouse small intestine at 0.74 MBq, iv administered into tail vein measured at 60 mins post-injection by automatic gamma counter analysis; type: ADME, organism-based; settings: in vivo, 1 h
[24] = Biodistribution in male ICR mouse pancreas at 0.74 MBq, iv administered into tail vein measured at 60 mins post-injection by automatic gamma counter analysis; type: ADME, organism-based; settings: in vivo, 1 h
[25] = Biodistribution in male ICR mouse brain at 0.74 MBq, iv administered into tail vein measured at 2 mins post-injection by automatic gamma counter analysis; type: ADME, organism-based; settings: in vivo
[26] = Biodistribution in male ICR mouse bone at 0.74 MBq, iv administered into tail vein pre-treated with GSK'547 followed by compound addition by automatic gamma counter analysis; type: ADME, organism-based, Bone element; settings: in vivo
[27] = Biodistribution in male ICR mouse liver at 0.74 MBq, iv administered into tail vein pre-treated with WL8 followed by compound addition by automatic gamma counter analysis relative to baseline; type: ADME, organism-based; settings: in vivo
[28] = Drug uptake in male mouse midbrain at 5 microCi/ml incubated for 30 mins by phosphor imager analysis; type: ADME, tissue-based; settings: 0.5 h
[29] = Biodistribution in male ICR mouse small intestine at 0.74 MBq, iv administered into tail vein pre-treated with GSK'547 followed by compound addition by automatic gamma counter analysis; type: ADME, organism-based; settings: in vivo
[30] = Biodistribution in male ICR mouse lung at 0.74 MBq, iv administered into tail vein pre-treated with WL8 followed by compound addition by automatic gamma counter analysis relative to baseline; type: ADME, organism-based; settings: in vivo
[31] = Drug uptake in male mouse thalamus at 5 microCi/ml incubated for 30 mins by phosphor imager analysis; type: ADME, tissue-based; settings: 0.5 h
[32] = Biodistribution in male ICR mouse pancreas at 0.74 MBq, iv administered into tail vein pre-treated with GSK'547 followed by compound addition by automatic gamma counter analysis relative to baseline; type: ADME, organism-based; settings: in vivo
[33] = Biodistribution in male ICR mouse blood at 0.74 MBq, iv administered into tail vein measured at 60 mins post-injection by automatic gamma counter analysis; type: ADME, organism-based; settings: in vivo, 1 h

Drug uptake [1]: Active | Drug uptake [2]: Not_active | Drug uptake [3]: Active | SUV [4]: Active | SUVmax [5]: 0.81 | Drug uptake [6]: Active | Drug uptake [7]: Not_active | Drug uptake [8]: 1.34 % ID/g | SUV [9]: Active | Drug uptake [10]: > 58% | Drug uptake [11]: Active | Drug uptake [12]: > 6.5 % ID/g | Drug uptake [13]: 5.32 % ID/g | Drug uptake [14]: Active | Drug uptake [15]: 4.57 % ID/g | Drug uptake [16]: 2.55 % ID/g | Drug uptake [17]: Active | Drug uptake [18]: Not_active | Drug uptake [19]: > 6.5 % ID/g | Drug uptake [20]: 6.69 % ID/g | Drug uptake [21]: Not_active | Drug uptake [22]: < 4 % ID/g | Drug uptake [23]: 20.75 % ID/g | Drug uptake [24]: < 4 % ID/g | Drug uptake [25]: 4.8 % ID/g | Drug uptake [26]: > 29% | Drug uptake [27]: Active | Drug uptake [28]: Active | Drug uptake [29]: > 27% | Drug uptake [30]: Active | Drug uptake [31]: Active | Drug uptake [32]: Active | Drug uptake [33]: 0.97 % ID/g
SMILES: Cc1ccc(C2CC=NN2C(=O)C2CCN(C(=O)c3cccc([18F])n3)CC2)cc1F (stereo not drawn)
